# Test results as given in paper PMC10873978, “Novel tetrahydroisoquinolines as DHFR and CDK2 inhibitors: synthesis, characterization, anticancer activity and antioxidant properties” (BMC Chemistry, 2024).
# Values joined by “and” are separate entries in the source; they are usually repeats but may differ in a detail not shown here. Identical values can stand only once. Like-named read-outs stand apart in the source and are kept apart here.
# What was measured:
# Type in all cases: cell-based, human
# MCF7 cell line = test: In vitro cytotoxic activity, MTT method, MCF7; conditions: for IC50: MTT
# Summary of the method: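 Monolayers formed over 24 h at 37 °C from 10^5 cells/mL were treated with graded compound concentrations, doxorubicin serving as reference. Viability came from MTT reduction over 1–5 h (5% CO2), absorbance at 560 nm with 620 nm background subtraction.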
# [1] = Cytotoxicity on normal cell line WI-38; conditions: human, WI-38 cells (normal fetal lung fibroblasts)
# WI-38 cell line = test: Cytotoxicity on normal cell line WI-38; conditions: for IC50: read-out: Toxicity on WI38 IC50 ± SD
smiles,measurement,setting,value
"CC(=O)c1ccc(NC(=O)c2sc3nc(C)c4c(c3c2N)CC(C)(O)C(C(C)=O)C4c2ccc(N(C)C)cc2)cc1 (stereo not shown) [Compound 8d, 7-Acetyl-N-(4-acetylphenyl)-1-amino-5,8-dimethyl-8-hydroxy-6-(4-N,N-dimethylaminophenyl)-6,7,8,9-tetrahydrothieno[2,3-c]isoquinoline-2-carboxamide]",IC50,"MCF7 cell line; Homo sapiens, MCF7, MCF7 cell line",0.17 µM
same,Toxicity %,"MCF7 cell line; MCF7, Conc. 0.0487 µMol",21.79%
same,Viability %,"MCF7 cell line; MCF7, Conc. 0.0487 µMol",78.2125%
same,Viability %,"MCF7 cell line; MCF7, Conc. 0.0975 µMol",54.4424%
same,Toxicity %,"MCF7 cell line; MCF7, Conc. 0.195 µMol",54.13%
same,Viability %,"MCF7 cell line; MCF7, Conc. 0.195 µMol",45.87%
same,Toxicity %,"MCF7 cell line; MCF7, Conc. 0.391 µMol",65.48%
same,Viability %,"MCF7 cell line; MCF7, Conc. 0.391 µMol",34.52%
same,Toxicity %,"MCF7 cell line; MCF7, Conc. 0.781 µMol",88.6%
same,Viability %,"MCF7 cell line; MCF7, Conc. 0.781 µMol",11.4%
same,Toxicity %,"MCF7 cell line; MCF7, Conc. 1.562 µMol",93.83%
same,Viability %,"MCF7 cell line; MCF7, Conc. 1.562 µMol",6.168%
same,Toxicity %,"MCF7 cell line; MCF7, Conc. 3.125 µMol",94.61%
same,Viability %,"MCF7 cell line; MCF7, Conc. 3.125 µMol",5.392%
same,Toxicity %,"MCF7 cell line; MCF7, Conc. 6.25 µMol",96.41%
same,Viability %,"MCF7 cell line; MCF7, Conc. 6.25 µMol",3.595%
same,Toxicity %,"MCF7 cell line; MCF7, Conc. 12.5 µMol",97.06%
same,Viability %,"MCF7 cell line; MCF7, Conc. 12.5 µMol",2.941%
same,Toxicity %,"MCF7 cell line; MCF7, Conc. 25 µMol",97.55%
same,Viability %,"MCF7 cell line; MCF7, Conc. 25 µMol",2.451%
same,IC50,MCF7 cell line; MCF7 cell line,0.117 ± 0.004 µM
same,viability at 3.125 µM,[1]; WI38,86.3%
same,viability at 1.55 µM,"[1]; WI38, 1.55uM (log conc. 0.19), read-out: % viability",96.7%
same,viability at 6.25 µM,"[1]; WI38, 6.25uM (log conc. 0.8), read-out: % viability",74%
same,viability at 12.5 µM,"[1]; WI38, 12.5uM (log conc. 1.1), read-out: % viability",62.8%
same,viability at 25 µM,"[1]; WI38, 25uM (log conc. 1.4), read-out: % viability",46.9%
same,IC50,"WI-38 cell line; Homo sapiens, WI-38, normal human fetal lung fibroblast WI-38",23.3 µM
same,Selectivity index (SI),WI-38 cell line; IC50 in WI-38 / IC50 in A549,45 and 45.24
same,% viability,"WI-38 cell line; WI38, 6.25uM (log conc. 0.8), 6.25 µM",73.9744%
same,% viability,"WI-38 cell line; WI38, 25uM (log conc. 1.4), 25 µM",46.8729%
same,IC50,WI-38 cell line; normal human fetal lung fibroblast WI-38,23.3 ± 0.93 µM
